Data taken from patent publication US6365217B2, “N-[N-(3,3-dimethylbutyl)-L-α-aspartyl]-L-phenylalanine 1-methyl ester agglomerate” (The Nutra Sweet Company, priority 1999, dated 2002).
Residues, ends and D or L forms follow the SMILES beside them.

What was measured:
[1] = relative to sucrose; cited from earlier work
[2] = Solubility in water, ethanol and organic solvents; format: physicochemical
[3] = under some pH conditions, compared with aspartame; cited from earlier work

COC(=O)[C@H](Cc1ccccc1)NC(=O)[C@H](CC(=O)O)NCCC(C)(C)C [N-[N-(3,3-dimethylbutyl)-L-α-aspartyl]-L-phenylalanine 1-methyl ester]
sweetening potency [1]: about 8,000 times
solubility in organic solvents ([2]; compared with aspartame): much higher solubility in organic solvents than aspartame
solubility in ethanol [2]: greater than 100 g/100 ml
solubility in water ([2]; water): about 1%
stability [3]: higher stability than aspartame

COC(=O)[C@H](Cc1ccccc1)NC(=O)[C@@H](N)CC(=O)O [aspartame, reference compound] (H-Asp-Phe-OMe)
solubility in ethanol [2]: less than 0.1%
